Data published in PubChem BioAssay AID1963873 (Molecular Pharmacology Branch, DTP, NCI, 2024).

Tested on: 276233-004-R-J1-PDC KRAS spheroids with HUVEC/MSC, viability
Assay: Anticancer human tumor 276233-004-R-J1-PDC patient-derived colon adenocarcinoma cell line growth inhibition [KRAS2]
Details: for viability, T/C: stronger effect = lower value
Summary of the method: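 Combination screen of spheroid viability in tumor-cell co-cultures with endothelial (HUVEC) and mesenchymal stem cell stroma. Each agent was tested in half-log dilutions, topping at clinical Cmax or at 10 microM without a known Cmax.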

[1] = curve of first compound, second compound 0.0316 µM
[2] = curve of first compound, second compound 0.1 µM
[3] = curve of first compound, second compound 0.316 µM
[4] = curve of first compound, second compound 1 µM
[5] = curve of first compound, second compound 3.16 µM
[6] = second compound 0.0316 µM, first compound 0.0316 µM
[7] = second compound 0.0316 µM, first compound 0.1 µM
[8] = second compound 0.0316 µM, first compound 0.316 µM
[9] = second compound 0.0316 µM, first compound 1 µM
[10] = second compound 0.0316 µM, first compound 3.16 µM
[11] = second compound 0.0316 µM, first compound 10 µM
[12] = second compound 0.1 µM, first compound 0.0316 µM
[13] = second compound 0.1 µM, first compound 0.1 µM
[14] = second compound 0.1 µM, first compound 0.316 µM
[15] = second compound 0.1 µM, first compound 1 µM
[16] = second compound 0.1 µM, first compound 3.16 µM
[17] = second compound 0.1 µM, first compound 10 µM
[18] = second compound 0.316 µM, first compound 0.0316 µM
[19] = second compound 0.316 µM, first compound 0.1 µM
[20] = second compound 0.316 µM, first compound 0.316 µM
[21] = second compound 0.316 µM, first compound 1 µM
[22] = second compound 0.316 µM, first compound 3.16 µM
[23] = second compound 0.316 µM, first compound 10 µM
[24] = second compound 1 µM, first compound 0.0316 µM
[25] = second compound 1 µM, first compound 0.1 µM
[26] = second compound 1 µM, first compound 0.316 µM
[27] = second compound 1 µM, first compound 1 µM
[28] = second compound 1 µM, first compound 3.16 µM
[29] = second compound 1 µM, first compound 10 µM
[30] = second compound 3.16 µM, first compound 0.0316 µM
[31] = second compound 3.16 µM, first compound 0.1 µM
[32] = second compound 3.16 µM, first compound 0.316 µM
[33] = second compound 3.16 µM, first compound 1 µM
[34] = second compound 3.16 µM, first compound 3.16 µM
[35] = second compound 3.16 µM, first compound 10 µM
[36] = curve of first compound, second compound 10 µM
[37] = second compound 10 µM, first compound 0.0316 µM
[38] = second compound 10 µM, first compound 0.1 µM
[39] = second compound 10 µM, first compound 0.316 µM
[40] = second compound 10 µM, first compound 1 µM
[41] = second compound 10 µM, first compound 3.16 µM
[42] = second compound 10 µM, first compound 10 µM
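Also: cells exposed to agents for seven days before viability read.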
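For viability, T/C in this document: 100% = DMSO vehicle control wells and lower values mean fewer viable cells.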

## COC(=O)c1ccc2c(C(=Nc3ccc(N(C)C(=O)CN4CCN(C)CC4)cc3)c3ccccc3)c(O)[nH]c2c1 + C=CC(=O)N1CCN(c2nc(OCC3CCCN3C)nc3c2CCN(c2cccc4cccc(C)c24)C3)CC1CC#N
[1]
  IC50: > 10000 nM
[2]
  IC50: > 10000 nM
[3]
  IC50: > 10000 nM
[4]
  IC50: > 10000 nM
[5]
  IC50: < 31.6 nM
[6]
  viability, T/C: 86.4%
[7]
  viability, T/C: 95.1%
[8]
  viability, T/C: 77.5%
[9]
  viability, T/C: 83.6%
[10]
  viability, T/C: 81.8%
[11]
  viability, T/C: 93.2%
[12]
  viability, T/C: 77.4%
[13]
  viability, T/C: 65.8%
[14]
  viability, T/C: 59.2%
[15]
  viability, T/C: 71.7%
[16]
  viability, T/C: 89.7%
[17]
  viability, T/C: 64%
[18]
  viability, T/C: 83.6%
[19]
  viability, T/C: 87.5%
[20]
  viability, T/C: 76.2%
[21]
  viability, T/C: 77.1%
[22]
  viability, T/C: 78.6%
[23]
  viability, T/C: 70%
[24]
  viability, T/C: 88%
[25]
  viability, T/C: 78.8%
[26]
  viability, T/C: 69.8%
[27]
  viability, T/C: 62.1%
[28]
  viability, T/C: 69.1%
[29]
  viability, T/C: 65.7%
[30]
  viability, T/C: 39.6%
[31]
  viability, T/C: 46.6%
[32]
  viability, T/C: 34.4%
[33]
  viability, T/C: 26.9%
[34]
  viability, T/C: 18.7%
[35]
  viability, T/C: 3.45%

## CC(C)n1nc(-c2ccc3oc(N)nc3c2)c2c(N)ncnc21
Compound 0.000316 µM
  viability, T/C: 98.1% [middle of 5 runs]
Compound 0.001 µM
  viability, T/C: 86.1% [middle of 5 runs]
Compound 0.01 µM
  viability, T/C: 66.5% [middle of 5 runs]
Compound 0.0316 µM
  viability, T/C: 60.8% [middle of 5 runs]
Compound 0.1 µM
  viability, T/C: 59.6% [middle of 5 runs]
Curve of compound
  IC50: > 100 nM

## CCNC(=O)CC1N=C(c2ccc(Cl)cc2)c2cc(OC)ccc2-n2c(C)nnc21 (stereo unspecified) + COc1cc2nc(C)nc(NC(C)c3cc(N)cc(C(F)(F)F)c3)c2cc1OC1CCOC1
[2]
  IC50: > 10000 nM
[3]
  IC50: 2460 nM
[4]
  IC50: 1190 nM
[5]
  IC50: 2340 nM
[36]
  IC50: < 31.6 nM
[12]
  viability, T/C: 101%
[13]
  viability, T/C: 67.1%
[14]
  viability, T/C: 61.4%
[15]
  viability, T/C: 55%
[16]
  viability, T/C: 50.4%
[17]
  viability, T/C: 49.2%
[18]
  viability, T/C: 94.6%
[19]
  viability, T/C: 80.2%
[20]
  viability, T/C: 69.5%
[21]
  viability, T/C: 54.5%
[22]
  viability, T/C: 45.7%
[23]
  viability, T/C: 48.2%
[24]
  viability, T/C: 84.7%
[25]
  viability, T/C: 77.7%
[26]
  viability, T/C: 60.3%
[27]
  viability, T/C: 42.7%
[28]
  viability, T/C: 44%
[29]
  viability, T/C: 34.4%
[30]
  viability, T/C: 62.3%
[31]
  viability, T/C: 69.7%
[32]
  viability, T/C: 62.2%
[33]
  viability, T/C: 50.8%
[34]
  viability, T/C: 46%
[35]
  viability, T/C: 43.2%
[37]
  viability, T/C: 31.6%
[38]
  viability, T/C: 33.9%
[39]
  viability, T/C: 22.6%
[40]
  viability, T/C: 12.9%
[41]
  viability, T/C: 11.1%
[42]
  viability, T/C: 8.17%

## Cn1nccc1Nc1nccc(-c2cc3c(s2)C(C)(C)N(CCN2CCOCC2)C3=O)n1 + COc1cc2nc(C)nc(NC(C)c3cc(N)cc(C(F)(F)F)c3)c2cc1OC1CCOC1
[2]
  IC50: 1720 nM
[3]
  IC50: 2010 nM
[4]
  IC50: 1850 nM
[5]
  IC50: 2720 nM
[36]
  IC50: < 31.6 nM
[12]
  viability, T/C: 87.1%
[13]
  viability, T/C: 97.3%
[14]
  viability, T/C: 76.2%
[15]
  viability, T/C: 59.4%
[16]
  viability, T/C: 40.8%
[17]
  viability, T/C: 33.8%
[18]
  viability, T/C: 89.2%
[19]
  viability, T/C: 91.4%
[20]
  viability, T/C: 79.3%
[21]
  viability, T/C: 60%
[22]
  viability, T/C: 42.9%
[23]
  viability, T/C: 41%
[24]
  viability, T/C: 99.7%
[25]
  viability, T/C: 96%
[26]
  viability, T/C: 75.5%
[27]
  viability, T/C: 60.5%
[28]
  viability, T/C: 35.9%
[29]
  viability, T/C: 48.4%
[30]
  viability, T/C: 107%
[31]
  viability, T/C: 74%
[32]
  viability, T/C: 77.9%
[33]
  viability, T/C: 56.1%
[34]
  viability, T/C: 42.4%
[35]
  viability, T/C: 47.2%
[37]
  viability, T/C: 39.3%
[38]
  viability, T/C: 41.3%
[39]
  viability, T/C: 34.7%
[40]
  viability, T/C: 27.6%
[41]
  viability, T/C: 15.2%
[42]
  viability, T/C: 4.25%

## CC(=O)Nc1cccc(-n2c(=O)n(C3CC3)c(=O)c3c(Nc4ccc(I)cc4F)n(C)c(=O)c(C)c32)c1 + COc1cc2nc(C)nc(NC(C)c3cc(N)cc(C(F)(F)F)c3)c2cc1OC1CCOC1
[2]
  IC50: 5.58 nM
[3]
  IC50: 4.05 nM
[4]
  IC50: 2.77 nM
[5]
  IC50: 1.8 nM
[36]
  IC50: < 0.1 nM
Second compound 0.1 µM, first compound 0.0001 µM
  viability, T/C: 86%
Second compound 0.1 µM, first compound 0.000316 µM
  viability, T/C: 88.2%
Second compound 0.1 µM, first compound 0.001 µM
  viability, T/C: 75.2%
Second compound 0.1 µM, first compound 0.00316 µM
  viability, T/C: 63%
Second compound 0.1 µM, first compound 0.01 µM
  viability, T/C: 37.4%
[12]
  viability, T/C: 17%
Second compound 0.316 µM, first compound 0.0001 µM
  viability, T/C: 88.8%
Second compound 0.316 µM, first compound 0.000316 µM
  viability, T/C: 79.2%
Second compound 0.316 µM, first compound 0.001 µM
  viability, T/C: 65.1%
Second compound 0.316 µM, first compound 0.00316 µM
  viability, T/C: 54.3%
Second compound 0.316 µM, first compound 0.01 µM
  viability, T/C: 38.4%
[18]
  viability, T/C: 23%
Second compound 1 µM, first compound 0.0001 µM
  viability, T/C: 95.2%
Second compound 1 µM, first compound 0.000316 µM
  viability, T/C: 72.6%
Second compound 1 µM, first compound 0.001 µM
  viability, T/C: 69.7%
Second compound 1 µM, first compound 0.00316 µM
  viability, T/C: 44.7%
Second compound 1 µM, first compound 0.01 µM
  viability, T/C: 34.3%
[24]
  viability, T/C: 12.3%
Second compound 3.16 µM, first compound 0.0001 µM
  viability, T/C: 80.2%
Second compound 3.16 µM, first compound 0.000316 µM
  viability, T/C: 76.4%
Second compound 3.16 µM, first compound 0.001 µM
  viability, T/C: 59.4%
Second compound 3.16 µM, first compound 0.00316 µM
  viability, T/C: 39.7%
Second compound 3.16 µM, first compound 0.01 µM
  viability, T/C: 21.6%
[30]
  viability, T/C: 8.22%
Second compound 10 µM, first compound 0.0001 µM
  viability, T/C: 26.6%
Second compound 10 µM, first compound 0.000316 µM
  viability, T/C: 21.4%
Second compound 10 µM, first compound 0.001 µM
  viability, T/C: 21.7%
Second compound 10 µM, first compound 0.00316 µM
  viability, T/C: 14%
Second compound 10 µM, first compound 0.01 µM
  viability, T/C: 15.2%
[37]
  viability, T/C: 6.73%

## COc1cc2nccc(Oc3ccc(NC(=O)C4(C(=O)Nc5ccc(F)cc5)CC4)cc3)c2cc1OC + C=CC(=O)N1CCN(c2nc(OCC3CCCN3C)nc3c2CCN(c2cccc4cccc(C)c24)C3)CC1CC#N
[1]
  IC50: > 10000 nM
[2]
  IC50: > 10000 nM
[3]
  IC50: > 10000 nM
[4]
  IC50: > 10000 nM
[5]
  IC50: 1680 nM
[6]
  viability, T/C: 80%
[7]
  viability, T/C: 89.7%
[8]
  viability, T/C: 91%
[9]
  viability, T/C: 78.9%
[10]
  viability, T/C: 87.6%
[11]
  viability, T/C: 90.6%
[12]
  viability, T/C: 93.5%
[13]
  viability, T/C: 116%
[14]
  viability, T/C: 82.5%
[15]
  viability, T/C: 94.2%
[16]
  viability, T/C: 74.8%
[17]
  viability, T/C: 70.6%
[18]
  viability, T/C: 76.2%
[19]
  viability, T/C: 79.5%
[20]
  viability, T/C: 86%
[21]
  viability, T/C: 84.6%
[22]
  viability, T/C: 84.7%
[23]
  viability, T/C: 91.2%
[24]
  viability, T/C: 71.5%
[25]
  viability, T/C: 74.5%
[26]
  viability, T/C: 67.1%
[27]
  viability, T/C: 72%
[28]
  viability, T/C: 80.1%
[29]
  viability, T/C: 75.7%
[30]
  viability, T/C: 52.1%
[31]
  viability, T/C: 63.4%
[32]
  viability, T/C: 65%
[33]
  viability, T/C: 76.7%
[34]
  viability, T/C: 32.6%
[35]
  viability, T/C: 3.91%
